Assay results taken from PubChem BioAssay (NCI).
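These data come from cells grown in 96-well plates and exposed to compound for 48 hours at five concentrations. At the GI50, growth is halved. TGI denotes the concentration required for complete inhibition of growth.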

Tests used:
Experiment in all cases: NCI tumour cell line growth inhibition, 48 h
SNB-75 CNS = tested on: SNB-75 CNS
NCI-H23 lung = tested on: NCI-H23 lung
HOP-92 NSCLC = tested on: HOP-92 NSCLC
SN12C renal = tested on: SN12C renal
HCT-116 colon = tested on: HCT-116 colon
BT-549 breast = tested on: BT-549 breast
UO-31 renal = tested on: UO-31 renal
KM12 colon = tested on: KM12 colon
HCT-15 colon = tested on: HCT-15 colon
MDA-MB-231 breast = tested on: MDA-MB-231 breast
SF-539 CNS = tested on: SF-539 CNS
NCI-H522 lung = tested on: NCI-H522 lung
ACHN renal = tested on: ACHN renal
CCRF-CEM leukemia = tested on: CCRF-CEM leukemia
SF-295 CNS = tested on: SF-295 CNS
DU-145 prostate = tested on: DU-145 prostate
HT29 colon = tested on: HT29 colon
OVCAR-3 ovarian = tested on: OVCAR-3 ovarian
SK-MEL-2 melanoma = tested on: SK-MEL-2 melanoma
MDA-MB-468 breast = tested on: MDA-MB-468 breast
SR leukemia = tested on: SR leukemia
HL-60(TB) leukemia = tested on: HL-60(TB) leukemia
UACC-257 melanoma = tested on: UACC-257 melanoma
SK-OV-3 ovarian = tested on: SK-OV-3 ovarian
786-0 renal = tested on: 786-0 renal
T-47D breast = tested on: T-47D breast
HS 578T breast = tested on: HS 578T breast
NCI-H460 lung = tested on: NCI-H460 lung
SW-620 colon = tested on: SW-620 colon
U251 CNS = tested on: U251 CNS
CAKI-1 renal = tested on: CAKI-1 renal
K-562 leukemia = tested on: K-562 leukemia
IGROV1 ovarian = tested on: IGROV1 ovarian
SK-MEL-5 melanoma = tested on: SK-MEL-5 melanoma
NCI-H226 lung = tested on: NCI-H226 lung
OVCAR-5 ovarian = tested on: OVCAR-5 ovarian
HOP-62 NSCLC = tested on: HOP-62 NSCLC
HCC-2998 colon = tested on: HCC-2998 colon
LOX IMVI melanoma = tested on: LOX IMVI melanoma
MALME-3M melanoma = tested on: MALME-3M melanoma
RPMI-8226 leukemia = tested on: RPMI-8226 leukemia
SK-MEL-28 melanoma = tested on: SK-MEL-28 melanoma
UACC-62 melanoma = tested on: UACC-62 melanoma
EKVX NSCLC = tested on: EKVX NSCLC
M14 melanoma = tested on: M14 melanoma
A498 renal = tested on: A498 renal
MOLT-4 leukemia = tested on: MOLT-4 leukemia

C=Cn1cc(C(=O)O)c(=O)c2cc(F)c(N3CCN(c4nccc(-c5nccs5)n4)CC3)cc21
GI50 (SNB-75 CNS): 115 nM | TGI (SNB-75 CNS): 1630 nM | GI50 (NCI-H23 lung): 55.8 nM | TGI (NCI-H23 lung): 1270 nM | GI50 (HOP-92 NSCLC): 210 nM | TGI (HOP-92 NSCLC): 1660 nM | GI50 (SN12C renal): 119 nM | TGI (SN12C renal): 2530 nM | GI50 (HCT-116 colon): 30.4 nM | TGI (HCT-116 colon): 1420 nM | GI50 (BT-549 breast): 194 nM | TGI (BT-549 breast): 1560 nM | GI50 (UO-31 renal): 25.9 nM | TGI (UO-31 renal): 782 nM | GI50 (KM12 colon): 78.5 nM | TGI (KM12 colon): 2670 nM | GI50 (HCT-15 colon): 40.5 nM | TGI (HCT-15 colon): 1600 nM | GI50 (MDA-MB-231 breast): 345 nM | TGI (MDA-MB-231 breast): 3440 nM | GI50 (SF-539 CNS): 72.8 nM | TGI (SF-539 CNS): 2310 nM | GI50 (NCI-H522 lung): 66.7 nM | TGI (NCI-H522 lung): 1280 nM | GI50 (ACHN renal): 16.6 nM | TGI (ACHN renal): 1170 nM | GI50 (CCRF-CEM leukemia): 61.6 nM | TGI (CCRF-CEM leukemia): > 100000 nM | GI50 (SF-295 CNS): 29.1 nM | TGI (SF-295 CNS): 1550 nM | GI50 (DU-145 prostate): 145 nM | TGI (DU-145 prostate): 4080 nM | GI50 (HT29 colon): 46.4 nM | TGI (HT29 colon): 2490 nM | GI50 (OVCAR-3 ovarian): 88.6 nM | TGI (OVCAR-3 ovarian): 2770 nM | GI50 (SK-MEL-2 melanoma): 77.1 nM | TGI (SK-MEL-2 melanoma): 1260 nM | GI50 (MDA-MB-468 breast): 109 nM | TGI (MDA-MB-468 breast): 1230 nM | TGI (SR leukemia): 1530 nM | GI50 (HL-60(TB) leukemia): 209 nM | TGI (HL-60(TB) leukemia): 2950 nM | GI50 (UACC-257 melanoma): 172 nM | TGI (UACC-257 melanoma): 2900 nM | GI50 (SK-OV-3 ovarian): 208 nM | TGI (SK-OV-3 ovarian): 3790 nM | GI50 (786-0 renal): 225 nM | TGI (786-0 renal): 2920 nM | GI50 (T-47D breast): 118 nM | TGI (T-47D breast): > 100000 nM | GI50 (HS 578T breast): 86.5 nM | TGI (HS 578T breast): 1490 nM | GI50 (NCI-H460 lung): 21.5 nM | TGI (NCI-H460 lung): 1390 nM | GI50 (SW-620 colon): 23.4 nM | TGI (SW-620 colon): 2690 nM | GI50 (U251 CNS): 85.8 nM | TGI (U251 CNS): > 100000 nM | GI50 (CAKI-1 renal): 23.7 nM | TGI (CAKI-1 renal): 839 nM | GI50 (K-562 leukemia): 61.4 nM | TGI (K-562 leukemia): > 100000 nM | GI50 (IGROV1 ovarian): 41.8 nM | TGI (IGROV1 ovarian): 1510 nM | GI50 (SK-MEL-5 melanoma): 36.4 nM | TGI (SK-MEL-5 melanoma): 576 nM | GI50 (NCI-H226 lung): 60.7 nM | TGI (NCI-H226 lung): 517 nM | GI50 (OVCAR-5 ovarian): 234 nM | TGI (OVCAR-5 ovarian): 3370 nM | GI50 (HOP-62 NSCLC): 139 nM | TGI (HOP-62 NSCLC): 3690 nM | GI50 (HCC-2998 colon): 80.4 nM | TGI (HCC-2998 colon): 2030 nM | GI50 (LOX IMVI melanoma): 35 nM | TGI (LOX IMVI melanoma): 195 nM | GI50 (MALME-3M melanoma): 50.6 nM | TGI (MALME-3M melanoma): 1330 nM | GI50 (RPMI-8226 leukemia): 62 nM | TGI (RPMI-8226 leukemia): 1450 nM | GI50 (SK-MEL-28 melanoma): 96.4 nM | TGI (SK-MEL-28 melanoma): 1260 nM | GI50 (UACC-62 melanoma): 24.6 nM | TGI (UACC-62 melanoma): 175 nM | GI50 (EKVX NSCLC): 283 nM | TGI (EKVX NSCLC): 4300 nM | GI50 (M14 melanoma): 238 nM | TGI (M14 melanoma): 3380 nM | GI50 (A498 renal): 55.4 nM | TGI (A498 renal): 2780 nM | GI50 (MOLT-4 leukemia): 40.4 nM | TGI (MOLT-4 leukemia): 2520 nM
